Values after ≈ are worked out from the molar mass of the structure shown.
Assays:
[1] = biological target: Escherichia coli UDP-2,3-diacylglucosamine hydrolase (LpxH) (Escherichia coli (strain K12), UniProt P43341); test: Enzymatic IC50 assay of Escherichia coli LpxH (UMP/CMP-Glo luminescence); type: biochemical; conditions: Enzymatic IC50 against Escherichia coli LpxH; read-out: IC50 (converted)
Experimental: The inhibitory potency of compounds of Escherichia coli UDP-2,3-diacylglucosamine hydrolase (LpxH) was determined in an enzymatic assay. UDP-2,3-diacylglucosamine (UDP-DAG) was purified from the Caulobacter crescentus LpxI D225A mutant protein that contained a tightly bound UDP-DAG molecule. The enzyme was diluted using assay buffer containing 50 mM NaCl, 20 mM Tris-HCl pH7.5, 2.5 mM MnCl2, 0.01% Triton X-100.1 mg/mL BSA, and the final concentration is 2 nM. The compounds were diluted by Agilent liquid handler Bravo, the compound's serial dilution dose ranges from 100 μM to 1.7 nM. Then the enzyme and compounds mixture were incubated at room temperature for 10 mins. The enzymatic assay was started by adding UDP-DAG (FAC is 5 μM) and incubated for 20 mins at room temperature. The plate was then heated to 95° C. for 15 mins on a water batch to stop the reaction. The hydrolysis of UDP-DAG by LpxH yielded 2,3-diacylglucosamine 1-phosphate (lipid X) and UMP, which was converted to ATP and quantified by the luciferase reaction using the UMP/CMP-Glo™ Glycosyltransferase Assay kit from Promega. The compound's inhibitory effect of LpxH is determined by measuring the light change using a luminometer (Envision).

[2] = system: Escherichia coli ATCC 25922; test: Minimal Inhibitory Concentration (MIC) broth dilution assay, E. coli ATCC 25922; type: cell-based; conditions: Escherichia coli, ATCC25922, 20 h, read-out: MIC E. coli ATCC 25922
Procedure, shortened: (§1)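 Broth microdilution with twofold compound series in cation-adjusted Mueller Hinton broth, inoculum 5×10^5 CFU/mL, applied to each strain. Plates incubated 20 h at 35 °C in ambient air. MIC […] recorded as the lowest concentration with no visible growth, read by eye.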

[3] = system: Klebsiella pneumonia ATCC 43816; test: Minimal Inhibitory Concentration (MIC) broth dilution assay, K. pneumonia ATCC 43816; type: cell-based; conditions: Klebsiella pneumoniae, ATCC43816, 20 hours at 35° C., CAMHB, read-out: MIC K. p ATCC 43816
Procedure, shortened: as §1

[4] = Human microsome stability assay; type: in vitro ADME; conditions: human liver microsomes 0.5 mg/mL, 37° C., pH 7.4, NADPH regenerating system
Procedure, shortened: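 Compound […] with 0.5 mg/mL human liver microsomal protein in 100 mM potassium phosphate pH 7.4, 10 min preincubation at 37 °C, started with NADPH regenerating system. Sampled 0–30 min, remaining compound by LC-MS/MS; clearance binned low <7, medium 7–16.2, high >16.2 mL/min/kg.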

[5] = system: Escherichia coli BW 25113; test: Minimal Inhibitory Concentration (MIC) broth dilution assay, E. coli BW 25113; type: cell-based; conditions: Escherichia coli, BW25113, 20 hours at 35° C., CAMHB, read-out: MIC E. coli K-12 BW 25113
Procedure, shortened: as §1

Sequence of Escherichia coli UDP-2,3-diacylglucosamine hydrolase (LpxH) (P43341 whole entry): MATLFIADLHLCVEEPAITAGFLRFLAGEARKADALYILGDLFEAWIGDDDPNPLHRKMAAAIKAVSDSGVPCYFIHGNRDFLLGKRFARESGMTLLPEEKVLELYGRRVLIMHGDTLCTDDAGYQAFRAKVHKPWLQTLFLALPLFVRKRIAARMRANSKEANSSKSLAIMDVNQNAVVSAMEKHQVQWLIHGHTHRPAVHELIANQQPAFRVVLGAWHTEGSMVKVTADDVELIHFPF

| Compound | IC50 [1] | MIC [2] | MIC [3] | Clearance of Human microsome [4] | MIC [5] |
| --- | --- | --- | --- | --- | --- |
| CN(C)CCCNC(=O)c1cnc(C(F)(F)c2cc(Cl)nc(N3CCN(S(=O)(=O)c4ccc(N5C[C@H](N)CC5=O)cc4)CC3)c2)cn1 [Example 023, 5-[[2-chloro-6-[4-[4-[(4R)-4-amino-2-oxo-pyrrolidin-1-yl]phenyl]sulfonylpiperazin-1-yl]-4-pyridyl]-difluoro-methyl]-N-[3-(dimethylamino)propyl]pyrazine-2-carboxamide] | < 2.89 nM | 1.4 µg/mL (≈ 2.02 µM) | 2.9 µg/mL (≈ 4.19 µM) | 6.15 mL/min/kg | 1.4 µg/mL (≈ 2.02 µM) |
| CNCCCNC(=O)c1ccc(C(F)(F)c2cc(Cl)nc(N3CCN(S(=O)(=O)c4ccc(N5C[C@H](N)CC5=O)cc4)CC3)c2)cn1 [Example 029, 5-[[2-chloro-6-[4-[4-[(4R)-4-amino-2-oxo-pyrrolidin-1-yl]phenyl]sulfonylpiperazin-1-yl]-4-pyridyl]-difluoro-methyl]-N-[3-(methylamino)propyl]pyridine-2-carboxamide] | 2.95 nM | 1.4 µg/mL (≈ 2.07 µM) | 1.4 µg/mL (≈ 2.07 µM) | 7.22 mL/min/kg | 2.8 µg/mL (≈ 4.13 µM) |
| NCCCNC(=O)c1ccc(C(F)(F)c2cc(Cl)nc(N3CCN(S(=O)(=O)c4ccc(N5C[C@H](N)CC5=O)cc4)CC3)c2)nc1 [Example 026, N-(3-aminopropyl)-6-[[2-chloro-6-[4-[4-[(4R)-4-amino-2-oxo-pyrrolidin-1-yl]phenyl]sulfonylpiperazin-1-yl]-4-pyridyl]-difluoro-methyl]pyridine-3-carboxamide] | 10.6 nM | 0.78 µg/mL (≈ 1.18 µM) | 0.78 µg/mL (≈ 1.18 µM) | 6.15 mL/min/kg | 0.78 µg/mL (≈ 1.18 µM) |
| NCC(O)CNC(=O)[C@H]1CC[C@H](C(F)(F)c2cc(Cl)nc(N3CCN(S(=O)(=O)c4ccc(N5C[C@H](N)CC5=O)cc4)CC3)c2)CC1 (stereo partly drawn) [Example 036, Trans-N-(3-amino-2-hydroxy-propyl)-4-[[2-chloro-6-[4-[4-[(4R)-4-amino-2-oxo-pyrrolidin-1-yl]phenyl]sulfonylpiperazin-1-yl]-4-pyridyl]-difluoro-methyl]cyclohexanecarboxamide] | 5.85 nM | 1.1 µg/mL (≈ 1.61 µM) | 1.1 µg/mL (≈ 1.61 µM) | 6.15 mL/min/kg | 1.1 µg/mL (≈ 1.61 µM) |
| NCCCNC(=O)C1CC2C(C1)C2C(F)(F)c1cc(Cl)nc(N2CCN(S(=O)(=O)c3ccc(N4C[C@H](N)CC4=O)cc3)CC2)c1 (stereo partly drawn) [Example 055, N-(3-aminopropyl)-6-[[2-chloro-6-[4-[4-[(4R)-4-amino-2-oxo-pyrrolidin-1-yl]phenyl]sulfonylpiperazin-1-yl]-4-pyridyl]-difluoro-methyl]bicyclo[3.1.0]hexane-3-carboxamide] | 9.01 nM | 0.85 µg/mL (≈ 1.28 µM) | 0.55 µg/mL (≈ 0.826 µM) | 8.58 mL/min/kg | 0.55 µg/mL (≈ 0.826 µM) |
| NC(CO)CNC(=O)[C@H]1CC[C@H](C(F)(F)c2cc(Cl)nc(N3CCN(S(=O)(=O)c4ccc(N5C[C@H](N)CC5=O)cc4)CC3)c2)CC1 (stereo partly drawn) [Example 052, Trans-N-(2-amino-3-hydroxy-propyl)-4-[[2-chloro-6-[4-[4-[(4R)-4-amino-2-oxo-pyrrolidin-1-yl]phenyl]sulfonylpiperazin-1-yl]-4-pyridyl]-difluoro-methyl]cyclohexanecarboxamide] | < 2.92 nM | 0.56 µg/mL (≈ 0.818 µM) | 0.56 µg/mL (≈ 0.818 µM) | 7.41 mL/min/kg | 0.56 µg/mL (≈ 0.818 µM) |
| NCCCNC(=O)[C@H]1CC[C@H](C(F)(F)c2cc(Cl)nc(N3CCN(S(=O)(=O)c4ccc(N5C[C@H](CO)OC5=O)cc4)CC3)c2)CC1 [Example 059, Trans-N-(3-aminopropyl)-4-[[2-chloro-6-[4-[4-[(5R)-5-(hydroxymethyl)-2-oxo-oxazolidin-3-yl]phenyl]sulfonylpiperazin-1-yl]-4-pyridyl]-difluoro-methyl]cyclohexanecarboxamide] | < 2.92 nM | 1.2 µg/mL (≈ 1.75 µM) | 1.2 µg/mL (≈ 1.75 µM) | 6.15 mL/min/kg | 1.2 µg/mL (≈ 1.75 µM) |
| NCCN(CCN)C(=O)[C@H]1CC[C@H](C(F)(F)c2cc(Cl)nc(N3CCN(S(=O)(=O)c4ccc(N5C[C@H](N)CC5=O)cc4)CC3)c2)CC1 [Example 043] | 35.9 nM | 0.57 µg/mL (≈ 0.817 µM) | 1.1 µg/mL (≈ 1.58 µM) | 9.94 mL/min/kg | 1.1 µg/mL (≈ 1.58 µM) |
| N[C@@H]1CC(=O)N(c2ccc(S(=O)(=O)N3CCN(c4cc(C(F)(F)[C@H]5CC[C@H](C(=O)NC6CNCC6O)CC5)cc(Cl)n4)CC3)cc2)C1 (stereo partly shown) [Example 006] | 4.31 nM | 1.1 µg/mL (≈ 1.58 µM) | 1.1 µg/mL (≈ 1.58 µM) | 6.15 mL/min/kg | 1.1 µg/mL (≈ 1.58 µM) |
| NC(=O)[C@H]1CC[C@H](C(F)(F)c2cc(Cl)nc(N3CCN(S(=O)(=O)c4ccc(N5C[C@H](N)CC5=O)cc4)CC3)c2)CC1 [Example 014] | < 3.27 nM | 1.1 µg/mL (≈ 1.8 µM) | 1.1 µg/mL (≈ 1.8 µM) | 6.15 mL/min/kg | 1.1 µg/mL (≈ 1.8 µM) |
| C[N+](C)(CCN)CCNC(=O)[C@H]1CC[C@H](C(F)(F)c2cc(Cl)nc(N3CCN(S(=O)(=O)c4ccc(N5C[C@H](N)CC5=O)cc4)CC3)c2)CC1 [Example 073, Trans-2-aminoethyl-[2-[[4-[[2-chloro-6-[4-[4-[(4R)-4-amino-2-oxo-pyrrolidin-1-yl]phenyl]sulfonylpiperazin-1-yl]-4-pyridyl]-difluoro-methyl]cyclohexanecarbonyl]amino]ethyl]-dimethyl-ammonium] | < 2.75 nM | 1.2 µg/mL | 2.4 µg/mL | 6.15 mL/min/kg | 1.2 µg/mL |
| N[C@@H]1CC(=O)N(c2ccc(S(=O)(=O)N3CCN(c4cc(C(F)(F)[C@H]5CC[C@H](C(=O)NCCN6CCCC6)CC5)cc(Cl)n4)CC3)cc2)C1 [Example 009, Trans-4-[[2-chloro-6-[4-[4-[(4R)-4-amino-2-oxo-pyrrolidin-1-yl]phenyl]sulfonylpiperazin-1-yl]-4-pyridyl]-difluoro-methyl]-N-(2-pyrrolidin-1-ylethyl)cyclohexanecarboxamide] | < 2.82 nM | 1.5 µg/mL (≈ 2.12 µM) | 1.5 µg/mL (≈ 2.12 µM) | 11.13 mL/min/kg | 1.5 µg/mL (≈ 2.12 µM) |
| NCC1CN(C(=O)[C@H]2CC[C@H](C(F)(F)c3cc(Cl)nc(N4CCN(S(=O)(=O)c5ccc(N6C[C@H](N)CC6=O)cc5)CC4)c3)CC2)C1 [Example 057] | 2.94 nM | 1.1 µg/mL (≈ 1.62 µM) | 1.1 µg/mL (≈ 1.62 µM) | 6.15 mL/min/kg | 1.1 µg/mL (≈ 1.62 µM) |
| NCCCN(CCCN)C(=O)[C@H]1CC[C@H](C(F)(F)c2cc(Cl)nc(N3CCN(S(=O)(=O)c4ccc(N5C[C@H](N)CC5=O)cc4)CC3)c2)CC1 [Example 044, Trans-N,N-bis(3-aminopropyl)-4-[[2-chloro-6-[4-[4-[(4R)-4-amino-2-oxo-pyrrolidin-1-yl]phenyl]sulfonylpiperazin-1-yl]-4-pyridyl]-difluoro-methyl]cyclohexanecarboxamide] | 48.3 nM | 0.62 µg/mL (≈ 0.855 µM) | 1.2 µg/mL (≈ 1.65 µM) | 7.30 mL/min/kg | 1.2 µg/mL (≈ 1.65 µM) |
| NCCN(CCN)CCCNC(=O)[C@H]1CC[C@H](C(F)(F)c2cc(Cl)nc(N3CCN(S(=O)(=O)c4ccc(N5C[C@H](N)CC5=O)cc4)CC3)c2)CC1 [Example 047] | 6.63 nM | 0.35 µg/mL (≈ 0.464 µM) | 0.3 µg/mL (≈ 0.398 µM) | 6.15 mL/min/kg | 0.3 µg/mL (≈ 0.398 µM) |
| CN(C)CCCNC(=O)c1ccc(C(F)(F)c2cc(Cl)nc(N3CCN(S(=O)(=O)c4ccc(N5C[C@H](N)CC5=O)cc4)CC3)c2)cc1 [Example 020, 4-[[2-chloro-6-[4-[4-[(4R)-4-amino-2-oxo-pyrrolidin-1-yl]phenyl]sulfonylpiperazin-1-yl]-4-pyridyl]-difluoro-methyl]-N-[3-(dimethylamino)propyl]benzamide] | 2.9 nM | 0.72 µg/mL (≈ 1.04 µM) | 0.72 µg/mL (≈ 1.04 µM) | 9.48 mL/min/kg | 0.72 µg/mL (≈ 1.04 µM) |
| N[C@@H]1CC(=O)N(c2ccc(S(=O)(=O)N3CCN(c4cc(C(F)(F)c5ccc(C(=O)NCCCNCCO)nc5)cc(Cl)n4)CC3)cc2)C1 [Example 039, 5-[[2-Chloro-6-[4-[4-[(4R)-4-amino-2-oxo-pyrrolidin-1-yl]phenyl]sulfonylpiperazin-1-yl]-4-pyridyl]-difluoro-methyl]-N-[3-(2-hydroxyethylamino)propyl]pyridine-2-carboxamide] | 4.24 nM | 1.6 µg/mL (≈ 2.26 µM) | 1.6 µg/mL (≈ 2.26 µM) | 6.15 mL/min/kg | 0.82 µg/mL (≈ 1.16 µM) |

From US20240417387A1, “SULFONYLPIPERAZINYL COMPOUNDS FOR TREATMENT OF BACTERIAL INFECTIONS” (Hoffmann-La Roche Inc., priority 2021, published 2024)
